The source of these data is ChEMBL document CHEMBL1201862, “PubChem BioAssay data set” (2004).

Some test systems named below: DU-145; HCC 2998; HCT-116; HL-60; LOX IMVI; MDA-MB-231; MDA-N; NCI-H460; NCI-H522; OVCAR-3; OVCAR-4; OVCAR-5; PC-3; SF-268; SF-539; SK-MEL-28; SNB-19; T47D; TK-10; UO-31.
Common to all, as to assay: NCI anticancer screen, dose series, 48 h

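Briefly, cells in 96-well plates were exposed to five compound concentrations for 48 h, and endpoints were estimated by linear interpolation. Abbreviation: GI50, concentration required for 50% inhibition of growth.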 Active and inactive are the calls of the source. Cut-off read from the data, not from the text of the source: active = GI50 up to about 1.1 µM and inactive = higher. Where only a bound is given, the exact number is not on record here.

With `Clc1ccc2c(c1)N(CCCN1CCCC13CCCCC3)c1ccccc1S2`, the GI50 in the experiment with DU-145 was 16.6 µM (inactive); with HCC 2998 it was 3.08 µM (inactive); with HCT-116, 13.9 µM (inactive); in the experiment with HL-60 it was 0.152 µM (active); with LOX IMVI, 12.4 µM (inactive); with MDA-MB-231, 8.85 µM (inactive). Moreover, the GI50 in the experiment on MDA-N was 13.1 µM (inactive); with NCI-H460 it was 7.48 µM (inactive); with NCI-H522, 10.6 µM (inactive); with OVCAR-3 it was 14.1 µM (inactive); in the experiment on OVCAR-4, 15.4 µM (inactive); with OVCAR-5, 17.3 µM (inactive). For the same compound, the GI50 in the experiment with PC-3 was 8.04 µM (inactive); in the experiment with SF-268, 18.8 µM (inactive); in the experiment with SF-539 it was 17.2 µM (inactive); in the experiment on SK-MEL-28 it was 14.9 µM (inactive); in the experiment with SNB-19, 13.7 µM (inactive); in the experiment with T47D, 11.9 µM (inactive). The GI50 in the experiment with TK-10 is 14.5 µM (inactive); with UO-31 it was 8.38 µM (inactive).
As to `O=C1NN(c2ccccc2)C(=O)C2C3c4ccccc4C(c4ccccc43)C12` (stereo not given), the GI50 is > 100 µM (inactive) in the experiment on DU-145; 6.64 µM (inactive) in the experiment on HCC 2998; 75 µM (inactive) in the experiment on HCT-116; > 10 µM (inactive) in the experiment with HL-60; > 100 µM (inactive) in the experiment on LOX IMVI; 41 µM (inactive) with MDA-MB-231. Also, the GI50 in the experiment with MDA-N is > 100 µM (inactive); in the experiment with NCI-H460, > 100 µM (inactive); with NCI-H522, 49.1 µM (inactive); with OVCAR-3 it was > 100 µM (inactive); with OVCAR-4, 60 µM (inactive); in the experiment with OVCAR-5 it was > 10 µM (inactive). Besides, the GI50 is 24.3 µM (inactive) in the experiment with PC-3; > 100 µM (inactive) with SF-268; > 100 µM (inactive) in the experiment on SF-539; > 100 µM (inactive) in the experiment with SK-MEL-28; > 100 µM (inactive) in the experiment on SNB-19; 44.4 µM (inactive) in the experiment with T47D. Besides, the GI50 in the experiment on TK-10 and in the experiment on UO-31 was > 100 µM (inactive) throughout.
Regarding `c1ccc2c(c1)Cn1c-2nc2ccccc21`, the GI50 in the experiment on DU-145 is 23.9 µM (inactive); in the experiment on HCC 2998, > 100 µM (inactive); in the experiment on HCT-116, > 100 µM (inactive); in the experiment on HL-60, > 100 µM (inactive); in the experiment with LOX IMVI, > 100 µM (inactive); with MDA-MB-231, > 100 µM (inactive). The GI50 with MDA-N is > 100 µM (inactive); in the experiment on NCI-H460, 97.3 µM (inactive); in the experiment with NCI-H522 it was 43.1 µM (inactive); with OVCAR-3, > 100 µM (inactive); with OVCAR-4, > 100 µM (inactive); in the experiment with OVCAR-5 it was > 100 µM (inactive). The GI50 in the experiment with PC-3, with SF-268, in the experiment with SF-539, with SK-MEL-28, in the experiment with SNB-19 and with T47D was > 100 µM (inactive) each time. Also, the GI50 with TK-10 was > 100 µM (inactive); in the experiment on UO-31, 4.83 µM (inactive).
With `COC(=O)c1cc2c(cc1CC1Cc3cc4c(cc3C1)CCC4)CCC2`, the GI50 was 84.7 µM (inactive) in the experiment on DU-145; 22.6 µM (inactive) with HCC 2998; 35.6 µM (inactive) in the experiment with HCT-116; 15.3 µM (inactive) in the experiment with HL-60; 24.3 µM (inactive) in the experiment with LOX IMVI; 77.3 µM (inactive) with MDA-MB-231. In addition, the GI50 was 36.1 µM (inactive) in the experiment with MDA-N; 51.1 µM (inactive) with NCI-H460; 25.7 µM (inactive) in the experiment on NCI-H522; 38.6 µM (inactive) with OVCAR-3; 84.7 µM (inactive) in the experiment on OVCAR-4; 43.5 µM (inactive) in the experiment with OVCAR-5. Further, the GI50 in the experiment on PC-3 is 74.3 µM (inactive); with SF-268 it was 56.9 µM (inactive); in the experiment with SF-539, 79.4 µM (inactive); in the experiment with SK-MEL-28, 19.5 µM (inactive); in the experiment with SNB-19, 93.3 µM (inactive); in the experiment with T47D it was 37.5 µM (inactive). Also, the GI50 is > 100 µM (inactive) with TK-10 and 32 µM (inactive) in the experiment on UO-31.
On to `Cc1cccc(/N=N/C(=N\NC(=O)c2cc(Cl)ccc2O)c2ccc(N(CCC#N)CCC#N)cc2C)c1`, for which the GI50 in the experiment with DU-145 was 39.6 µM (inactive); with HCC 2998, 28.5 µM (inactive); in the experiment with HCT-116, 33 µM (inactive); in the experiment with HL-60, 14.3 µM (inactive); in the experiment on LOX IMVI, 31 µM (inactive); with MDA-MB-231, 21.2 µM (inactive). For the same compound, the GI50 in the experiment with MDA-N is 55.6 µM (inactive); in the experiment on NCI-H460, 26.1 µM (inactive); with NCI-H522, 20.8 µM (inactive); with OVCAR-3 it was 18.5 µM (inactive); with OVCAR-4 it was 22.1 µM (inactive); with OVCAR-5 it was 64.9 µM (inactive). For the same compound, the GI50 in the experiment with PC-3 is 25.8 µM (inactive); with SF-268, 30.1 µM (inactive); in the experiment on SF-539, 33.3 µM (inactive); in the experiment with SK-MEL-28 it was 42.9 µM (inactive); in the experiment on SNB-19 it was 35.1 µM (inactive); in the experiment with T47D it was 22.9 µM (inactive). In addition, the results for the GI50 with TK-10 and in the experiment with UO-31 were 20 µM (inactive) and 21.9 µM (inactive), respectively.
Consider `O=C(O)c1ccccc1CC1Cc2ccccc2C1`, for which the GI50 with DU-145, with HCC 2998, with HCT-116, with HL-60, with LOX IMVI and in the experiment with MDA-MB-231 was > 100 µM (inactive) in each case. The GI50 in the experiment with MDA-N, in the experiment with NCI-H460, in the experiment on NCI-H522, with OVCAR-3, in the experiment on OVCAR-4 and in the experiment on OVCAR-5 was > 100 µM (inactive) throughout. Besides, the GI50 in the experiment with PC-3, in the experiment on SF-268, in the experiment on SF-539, in the experiment on SK-MEL-28, in the experiment with SNB-19 and in the experiment on T47D was > 100 µM (inactive) each time. For the same compound, the GI50 in the experiment on TK-10 and with UO-31 was > 100 µM (inactive) each time.
Consider `CCCCCc1c(CCCC)c(=O)[nH]c2cc(CNCC(OC)OC)ccc12`, for which the GI50 in the experiment with DU-145 was 14.6 µM (inactive); in the experiment with HCC 2998, 3.24 µM (inactive); in the experiment on HCT-116, 7.11 µM (inactive); in the experiment on HL-60, 6 µM (inactive); in the experiment on LOX IMVI, 6.01 µM (inactive); in the experiment with MDA-MB-231, 15.2 µM (inactive). Moreover, the GI50 with MDA-N was 11.7 µM (inactive); in the experiment on NCI-H460, 10.5 µM (inactive); in the experiment on NCI-H522 it was 17.6 µM (inactive); in the experiment with OVCAR-3, 17.3 µM (inactive); with OVCAR-4 it was 14.7 µM (inactive); in the experiment on OVCAR-5, 14.2 µM (inactive). For the same compound, the GI50 in the experiment with PC-3 is 12.2 µM (inactive); with SF-268 it was 16.7 µM (inactive); in the experiment on SF-539, 14.8 µM (inactive); with SK-MEL-28, 5.71 µM (inactive); in the experiment on SNB-19, 12.8 µM (inactive); in the experiment on T47D it was 15.5 µM (inactive). The results for the GI50 with TK-10 and in the experiment with UO-31 were 15 µM (inactive) and 13.2 µM (inactive), respectively.
As for `COc1ccc(-c2c3c(n(C4OC(CO)C(O)C(O)C4O)c(=S)c2C#N)CC(C)(C)CC3=O)cc1` (stereo not given), the GI50 is > 100 µM (inactive) with DU-145; > 100 µM (inactive) with HCC 2998; 73.3 µM (inactive) with HCT-116; > 100 µM (inactive) in the experiment on HL-60; > 100 µM (inactive) in the experiment with LOX IMVI; > 100 µM (inactive) with MDA-MB-231. Moreover, the GI50 with MDA-N, in the experiment on NCI-H460, with NCI-H522, in the experiment on OVCAR-3, with OVCAR-4 and in the experiment on OVCAR-5 was > 100 µM (inactive) in each case. Moreover, the GI50 with PC-3 is > 100 µM (inactive); with SF-268 it was > 100 µM (inactive); in the experiment on SF-539, > 100 µM (inactive); with SK-MEL-28, > 100 µM (inactive); in the experiment with SNB-19, > 100 µM (inactive); in the experiment with T47D, 13.8 µM (inactive). For the same compound, the GI50 in the experiment with TK-10 and with UO-31 was > 100 µM (inactive) each time.
`O=C1C(=O)N(c2cccc(C(F)(F)F)c2)C(=O)C(=O)C1c1nc2ccccc2s1`: the GI50 in the experiment on DU-145 is > 100 µM (inactive); in the experiment with HCC 2998, 99.5 µM (inactive); in the experiment with HCT-116 it was 43.8 µM (inactive); in the experiment with HL-60, 31.8 µM (inactive); with LOX IMVI it was 68.9 µM (inactive); in the experiment with MDA-MB-231, 73.6 µM (inactive). Besides, the GI50 in the experiment on MDA-N is > 100 µM (inactive); in the experiment on NCI-H460, > 100 µM (inactive); in the experiment on NCI-H522, > 100 µM (inactive); in the experiment on OVCAR-3, 48.6 µM (inactive); with OVCAR-4 it was > 92.5 µM (inactive); in the experiment on OVCAR-5, > 100 µM (inactive). The GI50 is > 100 µM (inactive) in the experiment with PC-3; 98.2 µM (inactive) in the experiment on SF-268; > 100 µM (inactive) with SF-539; > 100 µM (inactive) in the experiment on SK-MEL-28; > 100 µM (inactive) with SNB-19; > 100 µM (inactive) in the experiment with T47D. Moreover, the GI50 in the experiment on TK-10 is > 90.8 µM (inactive); in the experiment with UO-31, 79.8 µM (inactive).
For `Cc1ccc(/N=C2/SC(c3ccc(C)cc3)(c3ccc(C)cc3)c3ccccc32)cc1`, the GI50 in the experiment on DU-145, in the experiment on HCC 2998, in the experiment on HCT-116, in the experiment on HL-60, in the experiment on LOX IMVI and in the experiment on MDA-MB-231 was > 100 µM (inactive) each time. Further, the GI50 with MDA-N, in the experiment with NCI-H460, with NCI-H522, in the experiment with OVCAR-3, in the experiment on OVCAR-4 and with OVCAR-5 was > 100 µM (inactive) in each case. The GI50 with PC-3, with SF-268, in the experiment on SF-539, in the experiment on SK-MEL-28, with SNB-19 and in the experiment with T47D was > 100 µM (inactive) each time. Also, the GI50 in the experiment on TK-10 and in the experiment on UO-31 was > 100 µM (inactive) in each case.
